Patent publication US10112899B2 (ViiV HEALTHCARE UK LIMITED, priority 2014, dated 2018)

Test system: HIV in the HTLV-1 transformed cell line MT-4
Test: organism not typed
Format: cell-based
Details: MT4, 96 h, MT-4 cells; luciferase/cell titer glo readout after 96 hours; 10 point dose response

| SMILES | IC50 |
| --- | --- |
| Cc1ccc(F)cc1C(=O)N1Cc2c(C)c(-c3cc(F)c4c(c3C)CCCO4)c([C@H](OC(C)(C)C)C(=O)O)c(C)c2C1 [Example 136, (S)-2-(tert-butoxy)-2-((R)-2-(5-fluoro-2-methylbenzoyl)-6-(8-fluoro-5-methylchroman-6-yl)-4,7-dimethylisoindolin-5-yl)acetic acid] | 2 nM |
| COc1ccccc1C(=O)N1Cc2c(C)c(-c3ccc(C)cc3)c([C@H](OC(C)(C)C)C(=O)O)c(C)c2C1 [Example 163, (S)-2-(tert-butoxy)-2-(2-(2-methoxybenzoyl)-4,7-dimethyl-6-(p-tolyl)isoindolin-5-yl)acetic acid] | 4 nM |
| Cc1ccc(-c2c(C)c3c(c(C)c2[C@H](OC(C)(C)C)C(=O)O)CN(C(=O)c2cccc4c2OCC4)C3)cc1 [Example 164, (S)-2-(tert-butoxy)-2-(2-(2,3-dihydrobenzofuran-7-carbonyl)-4,7-dimethyl-6-(p-tolyl)isoindolin-5-yl)acetic acid] | 4 nM |
| Cc1ccc(-c2c(C)c3c(c(C)c2[C@H](OC(C)(C)C)C(=O)O)CN(C(=O)c2cccc4c2ccn4C)C3)cc1 [Example 165, (S)-2-(tert-butoxy)-2-(4,7-dimethyl-2-(1-methyl-1H-indole-4-carbonyl)-6-(p-tolyl)isoindolin-5-yl)acetic acid] | 108 nM |
| Cc1ccc(-c2c(C)c3c(c(C)c2[C@H](OC(C)(C)C)C(=O)O)CN(C(=O)c2cccc4sccc24)C3)cc1 [Example 166, (S)-2-(2-(benzo[b]thiophene-4-carbonyl)-4,7-dimethyl-6-(p-tolyl)isoindolin-5-yl)-2-(tert-butoxy)acetic acid] | 27 nM |
| Cc1ccc(-c2c(C)c3c(c(C)c2[C@H](OC(C)(C)C)C(=O)O)CN(C(=O)c2cccc4ccoc24)C3)cc1 [Example 167, (S)-2-(2-(benzofuran-7-carbonyl)-4,7-dimethyl-6-(p-tolyl)isoindolin-5-yl)-2-(tert-butoxy)acetic acid] | 4 nM |
| Cc1ccc(-c2c(C)c3c(c(C)c2[C@H](OC(C)(C)C)C(=O)O)CN(C(=O)c2ccccc2C)C3)cc1 [Example 219, (S)-2-(tert-butoxy)-2-(4,7-dimethyl-2-(2-methylbenzoyl)-6-(p-tolyl)isoindolin-5-yl)acetic acid] | 4 nM |
| Cc1ccc(-c2c(C)c3c(c(C)c2[C@H](OC(C)(C)C)C(=O)O)CN(C(=O)c2cccc(Cl)c2)C3)cc1 [Example 220, (S)-2-(tert-butoxy)-2-(2-(3-chlorobenzoyl)-4,7-dimethyl-6-(p-tolyl)isoindolin-5-yl)acetic acid] | 4 nM |
| Cc1ccc(-c2c(C)c3c(c(C)c2[C@H](OC(C)(C)C)C(=O)O)CN(C(=O)c2cccc(F)c2C)C3)cc1 [Example 221, (S)-2-(tert-butoxy)-2-(2-(3-fluoro-2-methylbenzoyl)-4,7-dimethyl-6-(p-tolyl)isoindolin-5-yl)acetic acid] | 4 nM |
| COc1cc(C(=O)N2Cc3c(C)c(-c4ccc(C)cc4)c([C@H](OC(C)(C)C)C(=O)O)c(C)c3C2)ccc1C [Example 222, (S)-2-(tert-butoxy)-2-(2-(3-methoxy-4-methylbenzoyl)-4,7-dimethyl-6-(p-tolyl)isoindolin-5-yl)acetic acid] | 4 nM |
| Cc1ccc(-c2c(C)c3c(c(C)c2[C@H](OC(C)(C)C)C(=O)O)CN(C(=O)c2ccnn2C)C3)cc1 [Example 223, (S)-2-(tert-butoxy)-2-(4,7-dimethyl-2-(1-methyl-1H-pyrazole-5-carbonyl)-6-(p-tolyl)isoindolin-5-yl)acetic acid] | 13 nM |
| Cc1ccc(-c2c(C)c3c(c(C)c2[C@H](OC(C)(C)C)C(=O)O)CN(C(=O)c2ccc(C(C)(C)C)cc2)C3)cc1 [Example 224, (S)-2-(tert-butoxy)-2-(2-(4-(tert-butyl)benzoyl)-4,7-dimethyl-6-(p-tolyl)isoindolin-5-yl)acetic acid] | 44 nM |
| Cc1ccc(-c2c(C)c3c(c(C)c2[C@H](OC(C)(C)C)C(=O)O)CN(C(=O)c2cccc(C)c2)C3)cc1 [Example 225, (S)-2-(tert-butoxy)-2-(4,7-dimethyl-2-(3-methylbenzoyl)-6-(p-tolyl)isoindolin-5-yl)acetic acid] | 5 nM |
| Cc1ccc(-c2c(C)c3c(c(C)c2[C@H](OC(C)(C)C)C(=O)O)CN(C(=O)c2cc(F)cc(Cl)c2)C3)cc1 [Example 226, (S)-2-(tert-butoxy)-2-(2-(3-chloro-5-fluorobenzoyl)-4,7-dimethyl-6-(p-tolyl)isoindolin-5-yl)acetic acid] | 5 nM |
| Cc1ccc(-c2c(C)c3c(c(C)c2[C@H](OC(C)(C)C)C(=O)O)CN(C(=O)c2ccc(C(F)(F)F)cc2)C3)cc1 [Example 227, (S)-2-(tert-butoxy)-2-(4,7-dimethyl-6-(p-tolyl)-2-(4-(trifluoromethyl)benzoyl)isoindolin-5-yl)acetic acid] | 14 nM |
| Cc1ccc(-c2c(C)c3c(c(C)c2[C@H](OC(C)(C)C)C(=O)O)CN(C(=O)C2CCC2)C3)cc1 [Example 228, (S)-2-(tert-butoxy)-2-(2-(cyclobutanecarbonyl)-4,7-dimethyl-6-(p-tolyl)isoindolin-5-yl)acetic acid] | 13 nM |
| Cc1ccc(-c2c(C)c3c(c(C)c2[C@H](OC(C)(C)C)C(=O)O)CN(C(=O)c2ccccc2)C3)cc1 [Example 229, (S)-2-(2-benzoyl-4,7-dimethyl-6-(p-tolyl)isoindolin-5-yl)-2-(tert-butoxy)acetic acid] | 5 nM |
| Cc1ccc(-c2c(C)c3c(c(C)c2[C@H](OC(C)(C)C)C(=O)O)CN(C(=O)c2cccc(C(C)(C)C)c2)C3)cc1 [Example 230, (S)-2-(tert-butoxy)-2-(2-(3-(tert-butyl)benzoyl)-4,7-dimethyl-6-(p-tolyl)isoindolin-5-yl)acetic acid] | 111 nM |
| Cc1ccc(-c2c(C)c3c(c(C)c2[C@H](OC(C)(C)C)C(=O)O)CN(C(=O)[C@H]2CCOC2)C3)cc1 [Example 231, (S)-2-(tert-butoxy)-2-(4,7-dimethyl-2-((S)-tetrahydrofuran-3-carbonyl)-6-(p-tolyl)isoindolin-5-yl)acetic acid] | 37 nM |
| CCOCCC(=O)N1Cc2c(C)c(-c3ccc(C)cc3)c([C@H](OC(C)(C)C)C(=O)O)c(C)c2C1 [Example 232, (S)-2-(tert-butoxy)-2-(2-(3-ethoxypropanoyl)-4,7-dimethyl-6-(p-tolyl)isoindolin-5-yl)acetic acid] | 148 nM |
| Cc1ccc(-c2c(C)c3c(c(C)c2[C@H](OC(C)(C)C)C(=O)O)CN(C(=O)Cc2cccc(F)c2)C3)cc1 [Example 233, (S)-2-(tert-butoxy)-2-(2-(2-(3-fluorophenyl)acetyl)-4,7-dimethyl-6-(p-tolyl)isoindolin-5-yl)acetic acid] | 12 nM |
| Cc1ccc(-c2c(C)c3c(c(C)c2[C@H](OC(C)(C)C)C(=O)O)CN(C(=O)c2cccc(OC(C)C)c2)C3)cc1 [Example 234, (S)-2-(tert-butoxy)-2-(2-(3-isopropoxybenzoyl)-4,7-dimethyl-6-(p-tolyl)isoindolin-5-yl)acetic acid] | 26 nM |
| COc1cncc(C(=O)N2Cc3c(C)c(-c4ccc(C)cc4)c([C@H](OC(C)(C)C)C(=O)O)c(C)c3C2)c1 [Example 235, (S)-2-(tert-butoxy)-2-(2-(5-methoxynicotinoyl)-4,7-dimethyl-6-(p-tolyl)isoindolin-5-yl)acetic acid] | 5 nM |
